Test results from patent publication US7417062B2, “Substituted arylamides” (ChemoCentryx, Inc., priority 2004, dated 2008).
Read-outs that look alike come from different tables or passages of the source.

Target: T1, CCXCKR2 receptor (Homo sapiens, UniProt P25106)
T1 construct: host or cells: MCF-7 (endogenous) and/or MDA-MB-435S transfected with hRDC1 in pcDNA3.1(+)
Test: Displacement of 125I-labeled SDF-1 from the CCXCKR2 receptor (radioligand binding, determination of IC50 values)
Description: The ability of the compounds to displace the labeled chemokine from the CCXCKR2 receptor sites at multiple concentrations was then determined with the screening process.
Compounds that were deemed effective modulators were able to displace at least 50% of the SDF-1 from the CCXCKR2 receptor at concentrations at or below 10 micromolar (μM) and more preferably at concentrations at or below 2 micromolar. At present, especially preferred compounds can displace at least 50% of the SDF-1 from the CCXCKR2 receptor at concentrations at or below 500 nM. Exemplary compounds that met these criteria are reproduced in Table B below. All compounds were prepared as described in the Examples above, or by related methods substituting readily available starting materials.
Reagents and Cells. ^125I-labeled SDF-1 was purchased from Perkin-Elmer Life Sciences, Inc. (Boston, Mass.). The MCF-7 (adenocarcinoma; mammary gland) cell line was obtained from the American Type Culture Collection (Manassas, Va.) or and was cultured in DMEM (Mediatech, Herndon, Va.) supplemented with 10% fetal bovine serum (FBS) (HyClone Logan, Utah) and bovine insulin (0.01 mg/mL) (Sigma, St. Louis, Mo.) at 37° C. in a humidified incubator at a 5% CO2/air mixture. CCXCKR2 transfected MDA-MB-435S were produced as described below. MDA-MB-435S human breast cancer line, was purchased from ATCC, and cultured in DMEM/10% FBS medium. The complete coding sequence of the gene encoding CCXCKR2 (a.k.a.CXCR7, hRDC1), was isolated from MCF-7 cells using μMACs mRNA isolation kit (Miltenyi Biotec, Auburn, Calif.). DNA contamination was removed by DNase digestion via RNeasy columns (Qiagen, Inc., Valencia, Calif.) and cDNA was generated using GeneAmp RNA PCR Core Kit (Applied Biosystems, Foster City, Calif.). PCR of cDNA samples was performed using Taq PCR Master Mix kit (Qiagen, Inc.) and hRDC1 primers harboring 5′ and 3′ Not I sites (hRDC1F 5′-[…]-3′ (SEQ ID NO:1), hRDC1R 5′-[…]-3′ (SEQ ID NO:2)) Not I digested PCR product was ligated into Not I digested pcDNA3.1(+)(Invitrogen, Carlsbad, Calif.) and screened for orientation and sequence confirmed. Plasmid DNA was then isolated from overnight bacterial cultures by Maxiprep (Qiagen, Inc.). Plasmid DNA (10 μg) was added to MDA-MB-435s cells and cells were electroporated (0.22 kV, 960 uF) via Gene Pulser (Biorad laboratories, Hercules, Calif.). 48 hr post-electroporation, cells were transferred to selection medium (1000 ug/ml G418).
Binding Analysis. Target compounds were tested to determine their ability to bind with CCXCKR2 sites on MCF-7 and/or MDA-MB-435S cells. Efficiency-maximized radioligand binding using filtration protocols as described in Dairaghi D J, et al., HHV8-encoded vMIP-I selectively engages chemokine receptor CCR5. Agonist and antagonist profiles of viral chemokines., J. Biol. Chem. 1999 Jul. 30; 274(31): 21569-74 and Gosling J, et al., Cutting edge: identification of a novel chemokine receptor that binds dendritic cell-and T cell-active chemokines including ELC, SLC, and TECK., J. Immunol. 2000 Mar. 15; 164(6):2851-6 was used.
In these assays, MCF-7 and/or MDA-MB-435S cells were interrogated with the target compounds and the ability of these compounds to displace ^125I radiolabeled SDF-1 was assessed using the protocol described in Dairaghi and Gosling. The target compounds were added to the plate to the indicated concentration and were then incubated with cells followed by the addition of radiolabeled chemokine (^125I SDF-1) for 3 hr at 4° C. in the following binding medium (25 mM HEPES, 140 mM NaCl, 1 mM CaCl2, 5 mM MgCl2 and 0.2% bovine serum albumin, adjusted to pH 7.1). All assays were then incubated for 3 hrs at 4° C. with gentle agitation. Following incubation in all binding assays, reactions were aspirated onto PEI-treated GF/B glass filters (Packard) using a cell harvester (Packard) and washed twice (25 mM HEPES, 500 mM NaCl, 1 mM CaCl2, 5 mM MgCl2, adjusted to pH 7.1). […]

[1] = MCF-7 and/or MDA-MB-435S cells expressing CCXCKR2, 125I SDF-1, 3 hr at 4° C., read-out: Activity (ability to displace 125I SDF-1 from CCXCKR2)

T1 sequence (P25106 whole entry): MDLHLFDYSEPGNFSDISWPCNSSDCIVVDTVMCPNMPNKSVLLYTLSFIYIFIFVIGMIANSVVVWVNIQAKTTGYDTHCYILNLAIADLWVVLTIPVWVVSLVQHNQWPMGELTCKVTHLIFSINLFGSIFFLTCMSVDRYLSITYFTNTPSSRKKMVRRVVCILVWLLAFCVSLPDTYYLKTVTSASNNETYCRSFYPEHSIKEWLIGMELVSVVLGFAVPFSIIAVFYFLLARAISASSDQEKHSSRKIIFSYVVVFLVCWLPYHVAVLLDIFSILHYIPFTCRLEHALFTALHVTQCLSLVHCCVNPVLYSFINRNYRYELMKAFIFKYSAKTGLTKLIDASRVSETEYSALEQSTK

| IC50 [1] [nM] | Compound | IC50 [nM] |
| --- | --- | --- |
| < 500 | COc1cc(C(=O)N(Cc2ccc3cc(F)ccc3n2)C[C@@H]2C[C@@H]3CCCC[C@@H]3N2)cc2c1OC(C)(C)O2 [Example 72, 7-Methoxy-2,2-dimethyl-benzo[1,3]dioxole-5-carboxylic acid (6-fluoro-quinolin-2-ylmethyl)-[(2S,3aS,7aS)-1-(octahydro-indol-2-yl)methyl]-amide] |  |
| < 500 | COc1cc(C(=O)N(C[C@@H]2C[C@@H]3CCCC[C@@H]3N2)C(C)c2ccc3ccccc3n2)cc2c1OC(C)(C)O2 (stereo partly drawn) [Example 71, 7-Methoxy-2,2-dimethyl-benzo[1,3]dioxole-5-carboxylic acid [(2S,3aS,7aS)-1-(octahydro-indol-2-yl)methyl]-(1-quinolin-2-yl-ethyl)-amide] |  |
| < 500 | COc1cc(C(=O)N(Cc2cc3ccccc3s2)C[C@@H]2CCCN2C2CCC2)cc2c1OC(C)(C)O2 [Example 60, 7-Methoxy-2,2-dimethyl-benzo[1,3]dioxole-5-carboxylic acid benzo[b]thiophen-2-ylmethyl-((S)-1-cyclobutyl-pyrrolidin-2-ylmethyl)-amide] |  |
| < 500 | COc1cc(C(=O)N(Cc2ccc3ccccc3n2)CC2CNC2)cc2c1OC(C)(C)O2 [Example 48, 7-Methoxy-2,2-dimethyl-benzo[1,3]dioxole-5-carboxylic acid azetidin-3-ylmethyl-quinolin-2-ylmethyl-amide] |  |
| < 500 | COc1cc(C(=O)N(Cc2cc3ccccc3cn2)C[C@@H]2C[C@@H]3CCCC[C@@H]3N2)cc2c1OC(C)(C)O2 [Example 64, 7-Methoxy-2,2-dimethyl-benzo[1,3]dioxole-5-carboxylic acid isoquinolin-3-ylmethyl-[(2S,3aS,7aS)-1-(octahydro-indol-2-yl)methyl]-amide] |  |
| < 500 | COc1cc(C(=O)N(Cc2csc(-c3ccccc3)n2)C[C@@H]2CCCN2C)cc2c1OC(C)(C)O2 [Example 56, 7-Methoxy-2,2-dimethyl-benzo[1,3]dioxole-5-carboxylic acid ((S)-1-methyl-pyrrolidin-2-ylmethyl)-(2-phenyl-thiazol-4-ylmethyl)-amide] |  |
| < 500 | COc1cc(C(=O)N(Cc2nc(-c3ccccc3)cs2)C[C@@H]2CCCN2CC2CNC2)cc2c1OC(C)(C)O2 [Example 52, 7-Methoxy-2,2-dimethyl-benzo[1,3]dioxole-5-carboxylic acid ((S)-1-azetidin-3-ylmethyl-pyrrolidin-2-ylmethyl)-(4-phenyl-thiazol-2-ylmethyl)-amide] |  |
| < 500 | COc1cc(C(=O)N(Cc2ccc3ccccc3n2)C[C@@H]2C[C@@H]3CCCC[C@@H]3N2)cc2c1OC(C)(C)O2 [Example 70, 7-Methoxy-2,2-dimethyl-benzo[1,3]dioxole-5-carboxylic acid [(2S,3aS,7aS)-1-(octahydro-indol-2-yl)methyl]-quinolin-2-ylmethyl-amide] |  |
| < 500 | COc1cc(C(=O)N(C[C@@H]2C[C@@H]3CCCC[C@@H]3N2)C(C)c2cc3ccccc3cn2)cc2c1OC(C)(C)O2 (stereo partly drawn) [Example 66, 7-Methoxy-2,2-dimethyl-benzo[1,3]dioxole-5-carboxylic acid (1-isoquinolin-3-yl-ethyl)-[(2S,3aS,7aS)-1-(octahydro-indol-2-yl)methyl]-amide] |  |
| < 500 | COc1cc(C(=O)N(Cc2ccc3ccccc3c2)C[C@@H]2CCCN2C2CCC2)cc2c1OC(C)(C)O2 [Example 59, 7-Methoxy-2,2-dimethyl-benzo[1,3]dioxole-5-carboxylic acid ((S)-1-cyclobutyl-pyrrolidin-2-ylmethyl)-naphthalen-2-ylmethyl-amide] |  |
| < 10000 | COc1cc(C(=O)N(Cc2ccc3ccccc3[n+]2[O-])C[C@@H]2CCCN2C2CCC2)cc2c1OC(C)(C)O2 [Example 69, 7-Methoxy-2,2-dimethyl-benzo[1,3]dioxole-5-carboxylic acid ((S)-1-cyclobutyl-pyrrolidin-2-ylmethyl)-(1-oxy-quinolin-2-ylmethyl)-amide] |  |
| < 500 | COc1cc(C(=O)N(Cc2cc3ccccc3o2)C[C@@H]2C[C@@H]3CCCC[C@@H]3N2)cc2c1OC(C)(C)O2 [Example 57, 7-Methoxy-2,2-dimethyl-benzo[1,3]dioxole-5-carboxylic acid benzofuran-2-ylmethyl-[(2S,3aS,7aS)-1-(octahydro-indol-2-yl)methyl]-amide] |  |

More lines, now with the values behind:

| Compound | IC50 [1] [nM] | IC50 [nM] |
| --- | --- | --- |
| COc1cc(C(=O)N(Cc2ccc3cccnc3n2)C[C@@H]2CCCN2C[C@H]2C[C@H]3CC[C@@H](C2)N3)cc2c1OC(C)(C)O2 [Example 41] |  | < 500 |
| COc1ccc(C(=O)N(C[C@@H]2CCCN2)c2cccc(-c3ccccc3)c2)cc1OC [Example 21] | < 2000 |  |
| COc1cc(C(=O)N(CCC2CCCN2C)Cc2nc3ccccc3s2)cc(OC)c1OC (stereo not drawn) [Example 13, N-Benzothiazol-2-ylmethyl-3,4,5-trimethoxy-N-[2-(1-methyl-pyrrolidin-2-yl)-ethyl]-benzamide] | < 500 |  |
| COc1cc(C(=O)N(CCC2CCCN2C)Cc2cnc3ccccc3c2)cc(OC)c1OC (stereo not drawn) [Example 10] | < 10000 |  |
| COCCOCCN1CCC[C@H]1CN(Cc1ccc2ccccc2n1)C(=O)c1cc(OC)c2c(c1)OC(C)(C)O2 [Example 47, 7-Methoxy-2,2-dimethyl-benzo[1,3]dioxole-5-carboxylic acid {(S)-1-[2-(2-methoxy-ethoxy)-ethyl]-pyrrolidin-2-ylmethyl}-quinolin-2-ylmethyl-amide] | < 500 |  |
| COc1ccc(C(=O)N(Cc2ccc3ccccc3c2)C[C@@H]2CCCN2CC2CCCCC2)cc1OC [Example 1, N—(S)-(1-Cyclohexylmethyl-pyrrolidine-2-ylmethyl)-3,4-dimethoxy-N-naphthalen-2-ylmethyl-benzamide] | < 500 |  |
| COc1ccc(C(=O)N(Cc2cc3ccccc3o2)C[C@@H]2CCCN2CC2CCCCC2)cc1OC [Example 3, N-benzofuran-2-ylmethyl-N—(S)-(1-cyclohexylmethyl-pyrrolidin-2-ylmethyl)-3,4-dimethoxy-benzamide] | < 500 |  |
| COc1cc(C(=O)N(CCC2CCCN2C)Cc2cc3ccccc3[nH]2)cc(OC)c1OC (stereo not drawn) [Example 15, N-(1H-Indol-2ylmethyl)-3,4,5-trimethoxy-N-[2-(1-methyl-pyrrolidin-2-yl)-ethyl]-benzamide] | < 2000 |  |
| COc1ccc(C(=O)N(C[C@@H]2CCCN2CC2CCCCC2)c2cccc(-c3csc(C)n3)c2)cc1OC | < 2000 |  |
| COc1cc(C(=O)N(Cc2ccc3cccnc3n2)C[C@@H]2C[C@@H]3CCCC[C@@H]3N2)cc2c1OC(C)(C)O2 [Example 42, 7-Methoxy-2,2-dimethyl-benzo[1,3]dioxole-5-carboxylic acid [1,8]naphthyridin-2-ylmethyl-[(2S,3aS,7aS)-1-(octahydro-indol-2-yl)methyl]-amide] | < 500 |  |
| COc1ccc(C(=O)N(Cc2nc3ccccc3s2)C[C@@H]2CCCN2)cc1OC [Example 25, N-Benzothiazol-2-yl methyl-3,4 dimethoxy-N—(S)-pyrrolidin-2-ylmethyl-benzamide] | < 2000 |  |
| COc1cc(C(=O)N(Cc2nc(-c3ccccn3)sc2Cl)C[C@@H]2CCCN2C2CCC2)cc2c1OC(C)(C)O2 | < 10000 |  |
